# Measurements taken from patent publication US20210348120A1, “Polarised Three-Dimensional Cellular Aggregates” (CAMBRIDGE ENTERPRISE LIMITED, priority 2018, published 2021).
# System: gastruloid cardiac portion
# Assay: Calcium imaging of the gastruloid cardiac portion
# Format: cell-based, mouse
# Settings: 168 h gastruloids, 1 μM, light sheet imaging with Cal-520
# Procedure: To image calcium fluxes, gastruloids were incubated for 1 h with 8 μM Cal-520 (AAT Bioquest) at 37° C., 5% CO2. Gastruloids were then transferred to fresh medium before imaging. Imaging was performed with a Light sheet Z1 microscope (Zeiss) equipped with an environmental chamber to maintain gastruloids at 37° C. and 5% CO2. For imaging, gastruloids were embedded in 1% low melt agarose and the chamber was filled with culture medium. Nifidepine (Sigma Aldrich, 10 μM) and Isoproterenol (Isoprenaline hydrochloride, Sigma 15627, 1 μM) were added with a syringe directly to the imaging chamber during acquisition. The analysis of calcium spikes was performed with the Fiji Stacks-plot Z-Axis profile plugin. The baseline intensity was normalized to the minimum value over 10 sec.
smiles,measurement,value
"CC(C)NCC(O)c1ccc(O)c(O)c1 (stereo not shown) [isoproterenol, Isoproterenol]",calcium spiking frequency,increase in spiking frequency
